Here are results for 31 compounds from US10214527B2, “Triazolopyridine inhibitors of myeloperoxidase” (priority 2015, dated 2019).

Holding throughout (assay type): biochemical
Experiment [1] deals with T1, myeloperoxidase (MPO) (Homo sapiens (Human), UniProt P05164). Kind of experiment: MPO chlorination assay (APF assay).
The target in experiment [2] is T1, myeloperoxidase (MPO). Kind of experiment: MPO peroxidation assay (Amplex Red assay).
Experiment [3] concerns the target eosinophil peroxidase (EPX) (Homo sapiens (Human), UniProt P11678). Kind of experiment: EPX bromination assay. The method, then:
[formula] where A=minimal Y value (activity level of inhibited sample), B=maximal Y value (activity level of uninhibited sample), C=Log IC50, D=Hill Slope, x=concentration of inhibitor. EPX Bromination Assay
EPX bromination activity was measured in 100 mM KPi (pH 7.4) by monitoring the H2O2 catalyzed formation of 3-bromo tyrosine from tyrosine and potassium bromide. A 50 μl mixture of 0.6 μM EPX (Lee Biosolutions Cat#342-60) was added to 100 nL inhibitor in 100% DMSO in a 384 well REMP plate. Enzyme and compound were preincubated for ten minutes at room temperature.
After the ten minute preincubation of enzyme and inhibitor, 25 μL of a mixture containing 400 μM tyrosine and 1200 μM potassium bromide was added to the plate containing enzyme and inhibitor, followed by the addition of 25 μl of 20 μM H2O2. The reaction was allowed to proceed for 15 minutes, at which time it was quenched with 10 μL of 20% TCA. The final concentrations of all components were 0.3 μM EPX, 100 μM tyrosine, […], 5 μM H2O2, 0.1% DMSO, 2.0% TCA.
IC50 values were determined by determining the peak areas of 3-bromo-tyrosine present at the end of the 15 minute reaction and fitting the data to:
[formula] where A=minimal Y value (activity level of inhibited sample), B=maximal Y value (activity level of uninhibited sample), C=Log IC50, D=Hill Slope, x=concentration of inhibitor.
Reversed-phase analysis was performed on a Waters Acquity Ultra Performance LC system using an Acquity UPLC BEH C18 […], 2.1×50 mm analytical column. The column was maintained at 60° C. Samples were eluted using a gradient of 0%-100% B over 2.5 minutes, followed by equilibration with 100% A for 1 minute where A consisted of 0.1% TFA and B consisted of 90% MeOH/0.1% TFA at a flow rate of 0.6 ml/min. The retention time of 3-bromo tyrosine was 1.22 min.

Setting [4] is: MPO chlorination, potency range class, read-out: APF Assay IC50 value.
Setting [5] is: MPO peroxidation, potency range class, read-out: Amplex Red Assay IC50 value.

Chain of eosinophil peroxidase (EPX) (P11678 140-715): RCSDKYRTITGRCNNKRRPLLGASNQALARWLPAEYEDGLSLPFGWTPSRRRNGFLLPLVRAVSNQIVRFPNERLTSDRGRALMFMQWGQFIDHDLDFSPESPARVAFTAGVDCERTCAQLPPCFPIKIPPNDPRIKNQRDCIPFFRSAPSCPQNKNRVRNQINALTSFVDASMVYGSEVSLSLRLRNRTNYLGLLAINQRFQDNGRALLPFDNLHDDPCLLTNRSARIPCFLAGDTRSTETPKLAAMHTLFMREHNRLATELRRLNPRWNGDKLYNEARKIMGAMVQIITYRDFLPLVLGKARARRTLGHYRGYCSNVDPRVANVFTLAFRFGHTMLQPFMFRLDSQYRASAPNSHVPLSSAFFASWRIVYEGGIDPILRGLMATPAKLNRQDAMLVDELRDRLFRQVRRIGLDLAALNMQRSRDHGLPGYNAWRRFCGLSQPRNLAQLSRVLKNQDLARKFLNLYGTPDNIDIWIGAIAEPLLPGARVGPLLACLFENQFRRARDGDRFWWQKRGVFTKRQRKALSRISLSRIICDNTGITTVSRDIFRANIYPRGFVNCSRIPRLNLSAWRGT
T1 sequence (P05164 49-745): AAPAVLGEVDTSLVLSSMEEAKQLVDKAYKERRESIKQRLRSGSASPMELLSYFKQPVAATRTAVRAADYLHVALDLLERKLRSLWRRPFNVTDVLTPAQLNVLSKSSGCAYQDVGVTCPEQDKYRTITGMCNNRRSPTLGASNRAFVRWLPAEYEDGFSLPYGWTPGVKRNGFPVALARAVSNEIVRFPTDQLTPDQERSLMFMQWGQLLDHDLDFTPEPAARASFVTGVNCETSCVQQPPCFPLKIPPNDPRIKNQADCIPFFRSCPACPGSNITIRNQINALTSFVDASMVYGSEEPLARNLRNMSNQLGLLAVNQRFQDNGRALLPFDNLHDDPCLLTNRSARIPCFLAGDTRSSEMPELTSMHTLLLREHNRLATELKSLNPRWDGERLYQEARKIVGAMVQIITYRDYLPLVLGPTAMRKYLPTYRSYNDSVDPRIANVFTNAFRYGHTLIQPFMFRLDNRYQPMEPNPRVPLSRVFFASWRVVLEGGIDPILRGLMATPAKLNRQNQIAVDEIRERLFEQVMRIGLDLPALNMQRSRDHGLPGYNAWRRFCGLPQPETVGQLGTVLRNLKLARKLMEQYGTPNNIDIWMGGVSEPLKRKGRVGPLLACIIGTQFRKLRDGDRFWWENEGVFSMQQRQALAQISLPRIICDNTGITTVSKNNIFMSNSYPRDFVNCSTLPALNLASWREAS

Regarding `Nc1cc(Cc2ccc(-n3cccn3)cc2)c2nn[nH]c2n1` [Example 11, 7-(4-(1H-pyrazol-1-yl)benzyl)-3H-[1,2,3]triazolo [4,5-b]pyridin-5-amine], the half-inhibitory concentration (IC50) in experiment [1] (setting [4]) and in experiment [2] (setting [5]) was 101 to 999 nM in each case. Turning to `CS(=O)(=O)c1cccc(Cc2cc(N)nc3[nH]nnc23)c1` [Example 13, 7-(3-(methylsulfon-yl)benzyl)-3H-[1,2,3]triazolo [4,5-b]pyridin-5-amine], the IC50 in experiment [1] and in experiment [2] was 1000 to 10000 nM each time. Regarding `Nc1cc(Cc2cccc(-c3cccc(F)c3)c2)c2nn[nH]c2n1` [Example 14, 7-((3′-fluoro-[1,1′-biphenyl]-3-yl)methyl)-3H-[1,2,3]triazolo [4,5-b] pyridin-5-amine], the half-maximal inhibitory concentration (IC50) (in general, the point on the concentration scale where inhibition reaches its midpoint) lay in the range of 1 to 100 nM in experiment [1] (setting [4]) and 101 to 999 nM in experiment [2] (setting [5]). The like results for `Nc1cc(Cc2cccc(Cc3ccccc3)c2)c2nn[nH]c2n1` [Example 16, 7-(3-benzylbenzyl)-3H-[1,2,3]triazolo [4,5-b]pyridin-5-amine] were, in that order, 1 to 100 nM and 1 to 100 nM. As to `Nc1cc(Cc2cc(Cl)ccc2F)c2nn[nH]c2n1` [Example 21, 7-(5-chloro-2-fluorobenzyl)-3H-[1,2,3] triazolo[4,5-b]pyridin-5-amine], the half-maximal inhibitory concentration (IC50) in experiment [1] (setting [4]) and in experiment [2] (setting [5]) was 1 to 100 nM each time. As for `Nc1cc(Cc2ccc(F)cc2)c2nn[nH]c2n1` [Example 28, 7-(4-fluorobenzyl)-3H-[1,2,3]triazolo [4,5-b]pyridin-5-amine], the IC50 in experiment [1] (setting [4]) and in experiment [2] (setting [5]) was 101 to 999 nM throughout. On to `Nc1cc(Cc2cccc(OC(F)(F)F)c2)c2nn[nH]c2n1` [Example 29, 7-(3-(trifluorometh-oxy)benzyl)-3H-[1,2,3]triazolo [4,5-b]pyridin-5-amine], for which the concentration for half-maximal inhibition (IC50) in experiment [1] (setting [4]) and in experiment [2] (setting [5]) was 101 to 999 nM in each case. For `Cc1cc(C)cc(Cc2cc(N)nc3[nH]nnc23)c1` [Example 31, 7-(3,5-dimethylbenzyl)-3H-[1,2,3] triazolo[4,5-b]pyridin-5-amine], the IC50 in experiment [1] (setting [4]) is 101 to 999 nM; in experiment [2] (setting [5]), 1 to 100 nM; in experiment [3] it was 34 nM.

For `Nc1cc(Cc2ccc(F)c(F)c2)c2nn[nH]c2n1` [Example 34, 7-(3,4-difluorobenzyl)-3H-[1,2,3] triazolo[4,5-b]pyridin-5-amine], the half-inhibitory concentration (IC50) in experiment [1] (setting [4]) and in experiment [2] (setting [5]) was 101 to 999 nM in each case.

As for `Nc1cc(Cc2ccc(-c3ccccc3)cc2)c2nn[nH]c2n1` [Example 37, 7-([1,1′-biphenyl]-4-ylmethyl)-3H-[1,2,3]triazolo [4,5-b]pyridin-5-amine], the IC50 in experiment [1] (setting [4]) and in experiment [2] (setting [5]) was 101 to 999 nM in each case. For `Nc1cc(Cc2cccc(C(=O)c3ccccc3)c2)c2nn[nH]c2n1` [Example 40, (3-((5-amino-3H-[1,2,3]triazolo [4,5-b]pyridin-7-yl)methyl)phenyl)(phenyl) methanone], the IC50 in experiment [1] (setting [4]) and in experiment [2] (setting [5]) was 101 to 999 nM in each case. Turning to `Nc1cc(Cc2ccc(F)cc2F)c2nn[nH]c2n1` [Example 43, 7-(2,4-difluorobenzyl)-3H-[1,2,3] triazolo[4,5-b]pyridin-5-amine], the concentration for half-maximal inhibition (IC50) in experiment [1] (setting [4]) and in experiment [2] (setting [5]) was 101 to 999 nM each time. For the compound `Nc1cc(Cc2cccc(F)c2F)c2nn[nH]c2n1` [Example 44, 7-(2,3-difluorobenzyl)-3H-[1,2,3] triazolo[4,5-b]pyridin-5-amine], the concentration for half-maximal inhibition (IC50) in experiment [1] (setting [4]) lay in the range of 101 to 999 nM; in experiment [2] (setting [5]), 1 to 100 nM. On the same counts, the results for `Nc1cc(Cc2cccc(C(=O)NCCc3ccccc3)c2)c2nn[nH]c2n1` [Example 47, 3-((5-Amino-3H-[1,2,3]triazolo[4,5-b]pyridin-7-yl)methyl)-N-phenethylbenzamide] are 101 to 999 nM and 101 to 999 nM. Turning to `Nc1cc(Cc2cccc(-c3ccn(Cc4ccccc4)n3)c2)c2nn[nH]c2n1` [Example 48, 7-(3-(1-Benzyl-1H-pyrazol-3-yl)benzyl)-3H-[1,2,3]triazolo[4,5-b]pyridin-5-amine], the IC50 is 101 to 999 nM in experiment [1] (setting [4]) and 1 to 100 nM in experiment [2] (setting [5]). The like results for `COC(=O)c1cc(Cc2cc(N)nc3[nH]nnc23)ccc1F` [Example 50, methyl 5-((5-amino-3H-[1,2,3]triazolo [4,5-b]pyridin-7-yl)methyl)-2-fluorobenzoate] were, in that order, 101 to 999 nM and 101 to 999 nM. The like results for `COc1cccc(Cc2cc(N)nc3[nH]nnc23)n1` [Example 51, 7-((6-Methoxypyridin-2-yl)methyl)-3H-[1,2,3]triazolo[4,5-b]pyridin-5-amine] were, in that order, 1000 to 10000 nM and 101 to 999 nM.

As to `COc1ccc(-c2cccc(Cc3cc(N)nc4[nH]nnc34)n2)cc1` [Example 55, 7-((6-(4-methoxyphenyl)pyridin-2-yl)methyl)-3H-[1,2,3]triazolo [4,5-b] pyridin-5-amine], the IC50 in experiment [2] (setting [5]) was in the range of 101 to 999 nM. For `Nc1cc(Cc2cccnc2)c2nn[nH]c2n1` [Example 56, 7-(pyridin-3-ylmethyl)-3H-[1,2,3] triazolo[4,5-b]pyridin-5-amine], the IC50 in experiment [1] (setting [4]) and in experiment [2] (setting [5]) was 101 to 999 nM throughout. As for `Nc1cc(Cc2cncc(Cl)c2)c2nn[nH]c2n1` [Example 57, 7-((5-chloropyridin-3-yl)methyl)-3H-[1,2,3]triazolo [4,5-b]pyridin-5-amine], the values for the 50% inhibitory concentration (IC50) in experiment [2] (setting [5]) and in experiment [3] were 1 to 100 nM and 52 nM, respectively. Take `Nc1cc(Cc2ccc(Oc3ccccc3)nc2)c2nn[nH]c2n1` [Example 58, 7-((6-phenoxypyridin-3-yl)methyl)-3H-[1,2,3]triazolo [4,5-b]pyridin-5-amine]: the half-inhibitory concentration (IC50) was in the range of 101 to 999 nM in experiment [1] (setting [4]) and 1000 to 10000 nM in experiment [2] (setting [5]). Regarding `Nc1cc(Cc2cccc3c2ccn3Cc2ccccc2)c2nn[nH]c2n1` [Example 59, 7-((1-Benzyl-1H-indol-4-yl)methyl)-3H-[1,2,3]triazolo[4,5-b]pyridin-5-amine], the IC50 in experiment [2] (setting [5]) lay within 1 to 100 nM. The same measure, in the same setting: for `CCn1ccc2c(Cc3cc(N)nc4[nH]nnc34)cccc21` [Example 60, 7-((1-Ethyl-1H-indol-4-yl)methyl)-3H-[1,2,3]triazolo[4,5-b]pyridin-5-amine] the value was 101 to 999 nM; for `Nc1cc(Cc2cccc3c2ccn3Cc2cccc(-c3ccccc3)c2)c2nn[nH]c2n1` [Example 61, 7-((1-([1,1′-Biphenyl]-3-ylmethyl)-1H-indol-4-yl)methyl)-3H-[1,2,3]triazolo[4,5-b]pyridin-5-amine], 1 to 100 nM. Consider `Nc1cc(Cc2cccc3c2ccn3Cc2cccc(Cc3ccccc3)c2)c2nn[nH]c2n1` [Example 62, 7-((1-(3-Benzylbenzyl)-1H-indol-4-yl)methyl)-3H-[1,2,3]triazolo[4,5-b]pyridin-5-amine], for which the concentration for half-maximal inhibition (IC50) in experiment [1] (setting [4]) and in experiment [2] (setting [5]) was 1 to 100 nM throughout. As for `Nc1cc(Cc2cccc3c2ccn3Cc2cccc(OCc3ccccc3)c2)c2nn[nH]c2n1` [Example 63, 7-((1-(3-(Benzyloxy)benzyl)-1H-indol-4-yl)methyl)-3H-[1,2,3]triazolo[4,5-b]pyridin-5-amine], the IC50 in experiment [1] (setting [4]) and in experiment [2] (setting [5]) was 1 to 100 nM each time.

With `Nc1cc(Cc2cccc3c2ccn3Cc2cccc(F)c2)c2nn[nH]c2n1` [Example 64, 7-((1-(3-Fluorobenzyl)-1H-indol-4-yl)methyl)-3H-[1,2,3]triazolo[4,5-b]pyridin-5-amine], the IC50 was 101 to 999 nM in experiment [1] (setting [4]), 1 to 100 nM in experiment [2] (setting [5]) and 19 nM in experiment [3].

Consider `Nc1cc(Cc2cccc3c2cnn3Cc2ccccc2)c2nn[nH]c2n1` [Example 65, 7-((1-Benzyl-1H-indazol-4-yl)methyl)-3H-[1,2,3]triazolo[4,5-b]pyridin-5-amine], for which the IC50 in experiment [1] (setting [4]) and in experiment [2] (setting [5]) was 1 to 100 nM throughout. For `Nc1cc(Cc2cccc3nn(Cc4ccccc4)cc23)c2nn[nH]c2n1` [Example 66, 7-((2-Benzyl-2H-indazol-4-yl)methyl)-3H-[1,2,3]triazolo[4,5-b]pyridin-5-amine], the concentration for half-maximal inhibition (IC50) in experiment [1] (setting [4]) and in experiment [2] (setting [5]) was 101 to 999 nM in each case.

Consider `Cn1ncc2ccc(Cc3cc(N)nc4[nH]nnc34)cc21` [Example 67, 7-((1-Methyl-1H-indazol-6-yl)methyl)-3H-[1,2,3]triazolo[4,5-b]pyridin-5-amine], for which the half-inhibitory concentration (IC50) in experiment [2] (setting [5]) is 101 to 999 nM. On the same count and under the same terms, in the case of `Cn1ncc2cc(Cc3cc(N)nc4[nH]nnc34)ccc21` [Example 68, 7-((1-Methyl-1H-indazol-5-yl)methyl)-3H-[1,2,3]triazolo[4,5-b]pyridin-5-amine] it was 101 to 999 nM.
